Measurements: ChEMBL document CHEMBL1150486, “Dihydro-imidazolone derivatives as angiotensin II receptor antagonists: chiral effect on the activity” (Bioorg Med Chem Lett, 1994)

Experiments:
Oryctolagus cuniculus = species on record: Oryctolagus cuniculus; test: Antagonism of the AII induced contraction of rabbit aortic tissue in a functional assay; details: Aorta
[1] = target: T1, Type-1 angiotensin II receptor B (Rattus norvegicus, UniProt P29089); test: In vitro binding affinity at Angiotensin II receptor, type 1 from rat liver membrane by [125I]- A II displacement.
T1 sequence (P29089 whole entry): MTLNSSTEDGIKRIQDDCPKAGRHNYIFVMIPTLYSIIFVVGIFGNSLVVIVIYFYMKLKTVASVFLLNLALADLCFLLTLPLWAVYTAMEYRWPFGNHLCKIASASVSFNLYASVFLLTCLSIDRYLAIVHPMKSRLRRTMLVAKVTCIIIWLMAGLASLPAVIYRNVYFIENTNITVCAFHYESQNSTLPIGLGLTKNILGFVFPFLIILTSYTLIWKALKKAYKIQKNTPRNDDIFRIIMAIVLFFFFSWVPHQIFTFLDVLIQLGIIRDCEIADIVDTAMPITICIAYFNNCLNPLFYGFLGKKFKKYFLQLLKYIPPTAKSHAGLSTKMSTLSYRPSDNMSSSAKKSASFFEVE

Row | SMILES | IC50 (Oryctolagus cuniculus) | IC50 [1]
1 | CCCCC1=NC(C)(C2CCCC2)C(=O)N1Cc1ccc(-c2ccccc2C(=O)O)cc1 (centres undefined) | 9.6 nM | 3.3 nM
2 | CCCCC1=NC(C)(c2ccccc2)C(=O)N1Cc1ccc(-c2ccccc2C(=O)O)cc1 (centres undefined) | 130 nM | 19 nM
